Consider 3 compounds from ChEMBL document CHEMBL5126591, “Early potential evaluation of lead compounds from a DNA-encoded library by the determination of their thermodynamics through a chromatographic method based on immobilized β2-adrenoceptor” (Bioorg Med Chem, 2022).

The source made the active and inactive calls. The calls are words filed in the database; no cut-off is given here.

Assay [1] addresses T1, Beta-2 adrenergic receptor (Homo sapiens, UniProt P07550). The assay is described as follows: Binding affinity to immobilized Halo tag-fused beta2 adrenoceptor (unknown origin) expressed in Escherichia coli BL21 (DE3) assessed as reduction in retention time by chromatographic analysis.
Target sequence in this assay (P07550 whole entry, looked up, the tested form may be a part): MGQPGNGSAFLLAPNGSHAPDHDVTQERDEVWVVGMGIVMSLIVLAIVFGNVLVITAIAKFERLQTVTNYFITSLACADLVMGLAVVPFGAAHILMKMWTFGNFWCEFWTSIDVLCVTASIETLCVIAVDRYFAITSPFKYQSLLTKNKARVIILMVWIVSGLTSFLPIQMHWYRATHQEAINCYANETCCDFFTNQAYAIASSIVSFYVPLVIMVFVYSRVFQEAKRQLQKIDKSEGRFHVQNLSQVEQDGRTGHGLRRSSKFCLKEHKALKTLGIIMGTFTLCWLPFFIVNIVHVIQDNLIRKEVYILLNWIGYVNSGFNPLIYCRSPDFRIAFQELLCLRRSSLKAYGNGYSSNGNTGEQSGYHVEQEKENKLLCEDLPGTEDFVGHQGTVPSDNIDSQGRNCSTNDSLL
Assay [2] addresses T1, Beta-2 adrenergic receptor.
Target sequence in this assay (P07550 whole entry, looked up, the tested form may be a part): as above
Description: Binding affinity to immobilized Halo tag-fused beta2 adrenoceptor (unknown origin) expressed in Escherichia coli BL21 (DE3) assessed as retention time by chromatographic analysis
The target in assay [3] is T1, Beta-2 adrenergic receptor. The assay is described as follows: Displacement of [3H]-CGP12,177 from immobilized Halo tag-fused beta2 adrenoceptor (unknown origin) expressed in Escherichia coli BL21 (DE3). (In a radioligand displacement assay an active substance lowers the binding of a labelled ligand.)
Target sequence in this assay (P07550 whole entry, the tested form may be a part): as the sequence (P07550 whole entry, looked up, the tested form may be a part) above

`CC1(C)[C@@H](O)CC[C@]2(C)[C@H]3C(=O)C=C4[C@@H]5C[C@@](C)(C(=O)NCCc6ccc(O)cc6)CC[C@]5(C)CC[C@@]4(C)[C@]3(C)CC[C@@H]12`: the result in assay [1] was Active.

In assay [2], `CNC(C)Cc1ccccc1OC` (centres undefined) [METHOXYPHENAMINE] registered a Retention time of 4.6 min. The Ka in assay [3] was 2.08 10^5/M.

`O=NO` showed a Retention time in assay [2] of 2.4 min.
